Data from PubChem BioAssay AID1996.
Values after ≈ are worked out from the molar mass of the structure shown.

Conditions: buffer; pH 7.4; 200.0 µM

Q: With `COc1cccc(OC)c1C(=O)Nc1ccc(N2CCCC2)cc1` as the compound, how does the solubility kinetic read?
A: Its solubility kinetic is 46.9 µg/mL (≈ 144 µM).

Q: Which solubility kinetic does the source give for `O=C(O)C1CCCN1C(=O)NC1CCCCC1` (stereo not given) here?
A: Its solubility kinetic is 30.4 µg/mL (≈ 127 µM).

Q: With `Cc1noc(C)c1CN1C(=O)c2ccccc2C1=O` as the compound, how does the solubility kinetic read?
A: Its solubility kinetic is 30.1 µg/mL (≈ 117 µM).

Q: Which solubility kinetic does the source give for `CCC(=NCCCn1ccnc1)c1c(O)n(-c2ccccc2)c(=O)[nH]c1=O` here?
A: Its solubility kinetic is over 55.1 µg/mL.

Q: For `O=C(CCCc1ccccc1)Nc1cccc([N+](=O)[O-])c1`, which solubility kinetic is on record?
A: Its solubility kinetic is 26.4 µg/mL (≈ 92.9 µM).

Q: With `CC(=O)N1c2ccc(S(=O)(=O)N3CCCCC3)cc2CC1C` (stereo not given) as the compound, how does the solubility kinetic read?
A: The solubility kinetic was over 48.4 µg/mL.

Q: For `COC(=O)c1cc(=O)n(-c2c(Cl)cc(C(F)(F)F)cc2Cl)[nH]1`, which solubility kinetic is on record?
A: Its solubility kinetic is over 53.3 µg/mL.

Q: Which solubility kinetic does the source give for `Cc1ccc(C)c2c1N(Cc1ccccc1)C(=O)C21OCCO1` here?
A: The solubility kinetic was under 0.7 µg/mL.

Q: Which solubility kinetic does the source give for `CN1CCCN(Cc2ccccc2Br)CC1` here?
A: The solubility kinetic was 35.3 µg/mL (≈ 125 µM).

Q: With `CC(Sc1nncn1C)C(=O)Nc1ccc(N2CCCCC2)cc1` (stereo not given) as the compound, how does the solubility kinetic read?
A: Its solubility kinetic is over 51.8 µg/mL.

Q: With `Cc1cccc(C)c1N1C(=O)C(Cl)=C(N2CCCC2)C1=O` as the compound, how does the solubility kinetic read?
A: Its solubility kinetic is 31.2 µg/mL (≈ 102 µM).

Q: For `CCn1cnc2cc(NCc3ccc(Cl)cc3)ccc21`, which solubility kinetic is on record?
A: Its solubility kinetic is 34 µg/mL (≈ 119 µM).

Q: For `Cc1cccc(C(=O)OC2CCCN(C)C2)c1C.Cl` (stereo not given), which solubility kinetic is on record?
A: Its solubility kinetic is 36.9 µg/mL.

Q: Which solubility kinetic does the source give for `CN(C)c1ncc(S(=O)(=O)c2ccccc2)c(=O)[nH]1` here?
A: Its solubility kinetic is over 41.9 µg/mL.

Q: With `CC(C)S(=O)(=O)c1cnc(-c2ccccn2)nc1N` as the compound, how does the solubility kinetic read?
A: Its solubility kinetic is 37.6 µg/mL (≈ 135 µM).

Q: With `NS(=O)(=O)c1cccc(NC(=O)COC(=O)CC2Sc3ccccc3NC2=O)c1` (stereo not given) as the compound, how does the solubility kinetic read?
A: Its solubility kinetic is 32.5 µg/mL (≈ 74.6 µM).

Q: For `CCN(CC(=O)Nc1c(F)cccc1F)C(=O)CSc1ccc(F)cc1`, which solubility kinetic is on record?
A: The solubility kinetic was over 57.4 µg/mL.

Q: With `O=C(CN1CCc2ccccc2C1)Nc1ccc(OC(F)(F)F)cc1` as the compound, how does the solubility kinetic read?
A: The solubility kinetic was 0.9 µg/mL (≈ 2.57 µM).

Q: For `Cc1ccc(S(=O)(=O)CC(=O)Nc2ccc(Cl)cn2)cc1`, which solubility kinetic is on record?
A: The solubility kinetic was 5.4 µg/mL (≈ 16.6 µM).

Q: Which solubility kinetic does the source give for `COc1ccc(NC(=O)c2cc(-c3ccccn3)nc3ccccc23)c(OC)c1` here?
A: Its solubility kinetic is 3.8 µg/mL (≈ 9.86 µM).

Q: With `Cc1cnc(NC(=O)c2ccc3c(c2)OCCO3)s1` as the compound, how does the solubility kinetic read?
A: Its solubility kinetic is 4.4 µg/mL (≈ 15.9 µM).

Q: With `Cc1onc(-c2ccccc2Cl)c1C(=O)N1CCCCCC1` as the compound, how does the solubility kinetic read?
A: Its solubility kinetic is over 47.8 µg/mL.

Q: With `Cc1cnc(C(=O)Nc2cc(F)ccc2C)cn1` as the compound, how does the solubility kinetic read?
A: Its solubility kinetic is 15.6 µg/mL (≈ 63.6 µM).

Q: Which solubility kinetic does the source give for `COc1ccc([N+](=O)[O-])cc1NC(=O)CCN1CCOCC1` here?
A: The solubility kinetic was over 46.4 µg/mL.

Q: With `COc1ccc(Nc2ccc([N+](=O)[O-])cn2)cc1` as the compound, how does the solubility kinetic read?
A: Its solubility kinetic is 3 µg/mL (≈ 12.2 µM).

Q: For `O=[N+]([O-])c1ccccc1OC/C(=N\O)c1ccccc1`, which solubility kinetic is on record?
A: Its solubility kinetic is over 40.8 µg/mL.

Q: For `Cc1ccc(N(CC(=O)NC2CC2)S(=O)(=O)c2ccccc2)c(C)c1`, which solubility kinetic is on record?
A: Its solubility kinetic is over 53.8 µg/mL.

Q: With `Cn1cccc1C(=O)OCC(=O)c1ccc(Br)s1` as the compound, how does the solubility kinetic read?
A: The solubility kinetic was 7.9 µg/mL (≈ 24.1 µM).

Q: With `COC(=O)CSc1nc(N)c(C#N)c(-c2ccc(O)cc2)c1C#N` as the compound, how does the solubility kinetic read?
A: The solubility kinetic was 0.6 µg/mL (≈ 1.76 µM).

Q: For `COc1ccc(OCC(=O)Nc2ccncc2)cc1`, which solubility kinetic is on record?
A: Its solubility kinetic is over 38.7 µg/mL.

Q: With `CC(Sc1nc2sccc2c(=O)n1-c1ccccc1)C(N)=O` (stereo not given) as the compound, how does the solubility kinetic read?
A: The solubility kinetic was 43.5 µg/mL (≈ 131 µM).

Q: For `CCOc1ccccc1NC(=O)NC(C)c1ccc2c(c1)OCO2` (stereo not given), which solubility kinetic is on record?
A: The solubility kinetic was 3.4 µg/mL (≈ 10.4 µM).

Q: For `COc1ccccc1CCNS(=O)(=O)c1cn(C)nc1C`, which solubility kinetic is on record?
A: Its solubility kinetic is over 46.4 µg/mL.

Q: Which solubility kinetic does the source give for `O=C(O)c1ccc(C2SCC(=O)N2Cc2ccco2)cc1` (stereo not given) here?
A: The solubility kinetic was over 45.5 µg/mL.

Q: With `O=C(Nc1ccc(S(=O)(=O)Nc2ccccc2)cc1)C1CC1` as the compound, how does the solubility kinetic read?
A: The solubility kinetic was 12.6 µg/mL (≈ 39.8 µM).

Q: With `CCOc1ccccc1CNC(=O)CCc1cn(C)c2ccccc12` as the compound, how does the solubility kinetic read?
A: Its solubility kinetic is 3.1 µg/mL (≈ 9.21 µM).

Q: For `CN(CCN1CCOCC1)Cc1nc(-c2ccc(Cl)cc2)no1`, which solubility kinetic is on record?
A: The solubility kinetic was 38.1 µg/mL (≈ 113 µM).

Q: Which solubility kinetic does the source give for `O=C(COC(=O)c1cc(=O)[nH]c2ccccc12)NCc1ccccc1Cl` here?
A: The solubility kinetic was 4.1 µg/mL (≈ 11.1 µM).

Q: With `O=C(/C=C/Nc1nccs1)C(F)(F)Cl` as the compound, how does the solubility kinetic read?
A: The solubility kinetic was 33.6 µg/mL (≈ 141 µM).

Q: Which solubility kinetic does the source give for `O=C(NC1CCCCC1)c1ccc(-c2ccccc2[N+](=O)[O-])o1` here?
A: The solubility kinetic was 2.9 µg/mL (≈ 9.23 µM).

Q: Which solubility kinetic does the source give for `COC(=O)Cc1c(O)ccn(CCc2c[nH]c3ccccc23)c1=O` here?
A: Its solubility kinetic is over 49 µg/mL.

Q: With `N#C/C(=C(/O)c1cccs1)c1nc2ccccc2[nH]1` as the compound, how does the solubility kinetic read?
A: Its solubility kinetic is 1.2 µg/mL (≈ 4.49 µM).

Q: For `COC(=O)CNC(=O)COC(=O)c1cc(SC)ccc1Cl`, which solubility kinetic is on record?
A: Its solubility kinetic is over 49.8 µg/mL.

Q: With `CC1(C)NC(=O)N(CC(=O)OCC(=O)c2ccc(Br)s2)C1=O` as the compound, how does the solubility kinetic read?
A: The solubility kinetic was over 58.4 µg/mL.

Q: Which solubility kinetic does the source give for `CCOC(=O)c1cc(NC(=O)CCC(=O)O)ccc1N1CCCCC1` here?
A: Its solubility kinetic is 51.3 µg/mL (≈ 147 µM).

Q: For `COC(=O)c1ccc(NC(=O)NC(=O)Oc2ccccc2)cc1`, which solubility kinetic is on record?
A: The solubility kinetic was 42.5 µg/mL (≈ 135 µM).

Q: Which solubility kinetic does the source give for `CCOC(=O)c1csc(NC(C)=O)n1` here?
A: The solubility kinetic was over 32.1 µg/mL.

Q: Which solubility kinetic does the source give for `O=C(O)c1ccc(S(=O)(=O)N2CCCc3ccccc32)cc1` here?
A: Its solubility kinetic is over 47.6 µg/mL.

Q: For `O=c1cc(-c2ccccc2)nc(/C=C/c2ccccc2)[nH]1`, which solubility kinetic is on record?
A: The solubility kinetic was 0.4 µg/mL (≈ 1.46 µM).

Q: Which solubility kinetic does the source give for `c1ccc(-c2noc(-c3ccno3)n2)nc1` here?
A: Its solubility kinetic is 25.4 µg/mL (≈ 119 µM).

Q: Which solubility kinetic does the source give for `Cc1cccc(NC(=O)COC(=O)COc2ccc3c(c2)CCC3)c1` here?
A: Its solubility kinetic is 5.7 µg/mL (≈ 16.8 µM).

Q: For `CC1C2NC(=O)N(Cc3ccccc3)C1(C)Oc1ccccc12` (stereo not given), which solubility kinetic is on record?
A: Its solubility kinetic is 20.9 µg/mL (≈ 67.8 µM).

Q: Which solubility kinetic does the source give for `Cc1ccc2[nH]c(=O)c(CN(C(=O)c3cccc([N+](=O)[O-])c3)C(C)C)cc2c1` here?
A: The solubility kinetic was 2.6 µg/mL (≈ 6.85 µM).

Q: For `CC(=O)Nc1ccc(NC(=O)COC(=O)c2ccccn2)cc1`, which solubility kinetic is on record?
A: Its solubility kinetic is over 47 µg/mL.

Q: Which solubility kinetic does the source give for `CC(OC(=O)c1ccc(Cl)nc1)C(=O)Nc1ccc2c(c1)OCO2` (stereo not given) here?
A: Its solubility kinetic is 11.9 µg/mL (≈ 34.1 µM).

Q: Which solubility kinetic does the source give for `Cc1ccc(C(=O)OCC(=O)NC2CCCCCC2)c(C)c1` here?
A: Its solubility kinetic is 4.6 µg/mL (≈ 15.2 µM).

Q: For `COc1cccc(CN2C(=O)NC3(CCCCCC3)C2=O)c1`, which solubility kinetic is on record?
A: The solubility kinetic was over 45.4 µg/mL.

Q: With `COc1ccc(C(=O)N2CCc3cc4c(cc3C2C)OCCCO4)cc1` (stereo not given) as the compound, how does the solubility kinetic read?
A: Its solubility kinetic is over 53 µg/mL.

Q: For `Cc1ccc(NC(=S)N(Cc2ccccc2)Cc2cccs2)c(C)c1`, which solubility kinetic is on record?
A: Its solubility kinetic is 0.8 µg/mL (≈ 2.18 µM).

Q: With `CCC1CCCCN1S(=O)(=O)c1ccccc1` (stereo not given) as the compound, how does the solubility kinetic read?
A: The solubility kinetic was 31.5 µg/mL (≈ 124 µM).
